Several values for one entry are separate records, joined by “and”; a condition that tells them apart may be missing. Equal values may be shown once.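 Results reflect a 48-hour exposure of cells in 96-well plates to compound at five concentrations. GI50 is the concentration that inhibits growth by half. Definition used: TGI = concentration required for complete inhibition of growth.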
Key:
Experiment in all cases: NCI-60 cell line screen, 48 h
RXF 393 renal = tested on: RXF 393 renal
A549 NSCLC = tested on: A549 NSCLC
SNB-19 CNS = tested on: SNB-19 CNS
COLO 205 colon = tested on: COLO 205 colon
NCI-H460 lung = tested on: NCI-H460 lung
OVCAR-3 ovarian = tested on: OVCAR-3 ovarian
SK-MEL-2 melanoma = tested on: SK-MEL-2 melanoma
SF-295 CNS = tested on: SF-295 CNS
HOP-62 NSCLC = tested on: HOP-62 NSCLC
OVCAR-4 ovarian = tested on: OVCAR-4 ovarian

SMILES | GI50 (RXF 393 renal) [µM] | TGI (RXF 393 renal) | GI50 (A549 NSCLC) [µM] | TGI (A549 NSCLC) [µM] | GI50 (SNB-19 CNS) [µM] | TGI (SNB-19 CNS) [µM] | GI50 (COLO 205 colon) [µM] | TGI (COLO 205 colon) [µM] | GI50 (NCI-H460 lung) [µM] | TGI (NCI-H460 lung) [µM] | GI50 (OVCAR-3 ovarian) [µM] | TGI (OVCAR-3 ovarian) | GI50 (SK-MEL-2 melanoma) [µM] | TGI (SK-MEL-2 melanoma) | GI50 (SF-295 CNS) [µM] | TGI (SF-295 CNS) [µM] | GI50 (HOP-62 NSCLC) [µM] | TGI (HOP-62 NSCLC) [µM] | GI50 (OVCAR-4 ovarian) [µM] | TGI (OVCAR-4 ovarian)
C=C1C(=O)O[C@H]2[C@H]1CC/C(Cn1cc(-c3ccc(F)cc3)nn1)=C\CC[C@@]1(C)O[C@@H]21 | 0.874 | 2.13 µM | 3.37 | 12.9 | 3.39 | 13 | 0.459 | 1.67 | 3.66 | 14 | 0.491 | 1.69 µM | 1.83 | 3.94 µM | 5.73 | 19.1 | 3.04 | 12.1 | 1.29 | 3.03 µM
ClCc1ccccc1Cn1cnc2c(Cl)ncnc21 | 0.442 | 2.32 µM | 7.73 | 25.8 | 5.38 | > 100 | 3.89 | > 100 | 15.4 | 44.5 | 1.4 | 3.53 µM | 2.76 | 18.1 µM | 10.5 | 23.3 | 2.52 | 6.03 | 3.39 | 12.2 µM
CCOC(=O)C12C(C(=O)OC)=C(C)N(NC(=O)Nc3ccccc3)C1(N)N(NC(=O)Nc1ccccc1)C(C)=C2C(=O)OC (stereo not drawn) | – | 74.3 µM | – | > 100 | – | > 100 | – | > 56.2 | – | > 94.2 | – | 60.2 µM | – | 37.5 µM | – | 60 | – | 49 | – | > 100 µM
O=C(/C=C1\C(=O)N(Cc2ccccc2)c2ccccc21)c1ccc(OCCN2CCCCC2)cc1 | 1.65 | 3.17 µM | 8.42 | 21.6 | 2.26 | 5.99 | 1.77 | 3.27 | 3.57 | 11.9 | 1.75 | 3.2 µM | 11.7 | 24.3 µM | 12.7 | 25.9 | 18.4 | 32.4 | 2.99 | 11.3 µM
CCC1(OC(=O)CN)C(=O)OCc2c1cc1n(c2=O)Cc2cc3ccccc3nc2-1 (stereo not drawn) | 0.148 | 0.88 µM and 0.307 µM | 0.0472 | 2.28 | 0.0128 | 4.91 | 0.276 | 0.667 | 0.00329 | – | 0.308 | 0.731 µM and 0.557 µM | 0.492 | 0.932 µM and 0.407 µM | 0.00249 | – | 0.0946 | 0.285 | 0.256 | 0.994 µM and 4.55 µM
COc1cc(OC)c(OC)cc1/C=C/c1cnnc2ccccc12 | – | > 10 µM | – | > 10 | – | > 10 | – | > 10 | – | > 10 | – | > 10 µM | – | > 10 µM | – | > 10 | – | > 10 | – | > 10 µM
CCCCc1c2cnccc2c(CCCC)c2c1[nH]c1ccccc12 | – | 24.9 µM | – | 29.5 | – | 22.1 | – | 27.4 | – | > 100 | – | 19.6 µM | – | 30.5 µM | – | 20.2 | – | 18.8 | – | 29.8 µM
